One substance from US7053052B2, “Therapies involving mutated heat shock transcription factor” (priority 1997, dated 2006) can be followed below.

Entries after “also recorded” stand apart in the source; their conditions may differ.

For experiment [1], the system named is HeLa-CAT cells. Put plainly: Rates of protein and DNA synthesis in HSF1(+)-expressing cells (3H-leucine, 3H-thymidine incorporation). The settings on record: day 2. Format: cell-based, human. How it is done:
CAT assays were performed using the chromatographic assay of Gorman, C. M. et al., Mol. Cell. Biol., 2:1044–1051 (1982)). DNA replication was assessed by a standard ^3H-thymidine incorporation assay. In most experiments, including all western blot assays, standardization was based on protein content. All protein determinations were made using the Bradford method. In a few experiments involving sorted cells, standardization was based on cell numbers. All experiments were repeated at least twice, and, in most cases, each data point was derived from assays of 3–5 parallel samples.
Protein synthesis dropped to about 10% of the normal rate during heat shock but, after a 1 hour recovery period, returned to pre-shock level in HSF1(+)-expressing but not control cells. […] Fluorescence-activated cell sorting and analyses of DNA content were performed on a FACStar Plus machine (Becton-Dickinson, San Jose, Calif.) configured as described elsewhere (Parks, D. R. et al., In: The Handbook of Experimental Immunology, 4th Edition. Vol. 29. pp. 1–29, 1986). Excitation wave length was 488 nm, and detection lengths were 650 nm (long pass) for propidium iodide and 520 nm (narrow band) for fluorescence by GFP. Extracts from sorted cells were analyzed by western blot. mutHSF was detected in cells sorted as positive for GFP, but not in cells sorted as negative compare. […]
(Incorporation of labelled thymidine or its analogues reports DNA synthesis.)

Experiment [2] has as its system HeLa-CAT cells. Put plainly: Cell proliferation and cell cycle distribution (FACS, propidium iodide). Format: cell-based, human. As for the experimental part:
This cell cycle arrest was followed by flow cytometry of propidium iodide-stained cells. To determine whether mutHSF-induced expression (enhanced expression) of hsp protects the cells from hyperthermia-induced cell cycle arrest, cells were either co-transfected with a CMV promoter-linked mutHSF gene construct and a GFP construct, or singly transfected with the GFP construct. After heat treatment and postincubation as described herein, cells were sorted based on GFP fluorescence. […]
For fluorescence-activated cell sorting, cells from cultures transfected or co-transfected with EGFP-expressing construct were removed from tissue culture dishes by treatment with 0.04% EDTA in phosphate-buffered saline (PBS) and were resuspended in PBS. […] Excitation wavelength was 488 nm, and detection wave lengths were 650 nm (long pass) for propidium iodide and 520 nm (narrow band) for detection of EGFP fluorescence. […]
Protein synthesis dropped to about 10% of the normal rate during heat shock but, after a 1 hour recovery period, returned to pre-shock level in HSF1(+)-expressing but not control cells. […] Fluorescence-activated cell sorting and analyses of DNA content were performed on a FACStar Plus machine (Becton-Dickinson, San Jose, Calif.) configured as described elsewhere (Parks, D. R. et al., In: The Handbook of Experimental Immunology, 4th Edition. Vol. 29. pp. 1–29, 1986). […]

The subject of another experiment is rodent cell lines. Put plainly: hsp overexpression in rodent cell lines. It counts as cell-based. Conditions: several rodent cell lines.

In the case of human HSF1d202–316 [HSF1(+)], in the experiment on HeLa-CAT cells [1], the “reduction of DNA replication (3H-thymidine incorporation) compared to control cells” value was 4–5 fold. The “heat-induced G2/M cell cycle arrest” value with HeLa-CAT cells [2] (43° C. heat shock, GFP-positive cells, listed as mutHSF) is “much lower proportion of cells in G2/M phase; also recorded: only a small fraction”. Besides, the cell proliferation result with HeLa-CAT cells [2] (FACS-isolated, days two to four) is reported as “severely inhibited cell proliferation”. Besides, in the experiment on rodent cell lines, the “pattern of hsp overexpression” value is “hsp90 and, to a lesser extent, hsp25 were clearly overexpressed; the rate of hsp70 synthesis was only marginally enhanced”.
